Two compounds from patent publication US20240140947A1, “COMPOUND FOR THE TREATMENT OF CANCER” (priority 2022, published 2024) can be followed below.

Data set [1] is described as follows: Rat i.v. pharmacokinetic study. Format: in vivo. As for the experimental part: Rat PK studies were done at Pfizer (Groton, CT) or BioDuro Pharmaceutical Product Development Inc. (Shanghai, PRC); Jugular vein-cannulated male Wistar-Hannover rats were purchased from Charles River Laboratories, Inc. (Wilmington, MA) or Vital River (Beijing, China) and were typically 7-10 weeks of age at the time of dosing. During the pharmacokinetic studies all animals were housed individually. Access to food and water was provided ad libitum. Compounds were administered i.v. via the tail vein (n=2 or 3), dosed as a 1 mg/ml solution using standard compatible excipients at 1 mL/kg for a resulting dose of […]. Serial blood samples were collected via the jugular vein cannula at predetermined timepoints after dosing. Animals were monitored for pain or distress throughout the study, with at least daily monitoring during normal husbandry prior to study start. At the completion of the study, animals were euthanized by overdose of inhaled anesthesia followed by exsanguination. […] Plasma samples from the animal PK studies were processed using protein precipitation with acetonitrile: methanol (1:1) containing internal standard verapamil followed by quantitation by LC-MS/MS against a standard curve prepared in blank plasma. Pharmacokinetic parameters were calculated using noncompartmental analysis (Watson v.7.5, Thermo Scientific).

For data set [2], the target named is T1, CDK6/Cyclin D3 (Homo sapiens, UniProt Q00534).
T1 construct: LJIC-2009G1/2010+PO4
Put plainly: CDK6/Cyclin D3 mobility shift assay. Format: biochemical. Particulars: geometric mean, 3.5 mM ATP. As for the experimental part:
The mobility shift assay electrophoretically separates the fluorescently labeled peptides (substrate and phosphorylated product) following the kinase reaction. Both substrate and product are measured, and the ratio of these values is used to generate % conversion of substrate to product by the LabChip EZ Reader.
The reaction was stopped after 95 minutes by the addition of 50 μL of 30 mM EDTA. Ki determinations were made from a plot of the fractional velocity as a function of inhibitor concentration fit to the Morrison equation with the enzyme concentration as a variable.
For CDK4 and CDK6 mobility shift assays, see also Morrison, J. F. (1969) Kinetics of the reversible inhibition of enzyme-catalysed reactions by tight-binding inhibitors, Biochimica et biophysica acta 185, 269-286; and Murphy, D. J. (2004) Determination of accurate KI values for tight-binding enzyme inhibitors: an in silico study of experimental error and assay design, Analytical biochemistry 327, 61-67.

The subject of data set [3] is palbociclib resistant (PalboR) derivatives of MCF7, T47D, and HCC1428. Briefly: Cell proliferation assay, palbociclib resistant derivatives (range over lines). Format: cell-based. The following applies: Homo sapiens, read-out: anti-proliferation IC50 values, range over cell lines. As to the method: (§1) OVCAR3, MCF7, T47D, HCC1428, NCIH2087, NCIH358 or A549cells were seeded 1-3000 cells/well in 96-well plates in growth media containing 10% FBS and cultured overnight at 37° C. 5% CO2. The following day, compounds were serially diluted from a 10 mM top dose for an 11-point 3-fold dilution curve in DMSO. Compound 1 and PF-06873600 were intermediately diluted 1:200 into growth media prior to diluting 1:5 on cells for final concentration 10 μM to 0.1 nM in 0.1% DMSO on cells. Cells were incubated at 37° C. 5% CO2 for 7 days. CYQUANT Direct Cell Proliferation Assay (Molecular Probes, Eugene, OR) was then performed following manufacturer recommendations to determine the relative viable cell numbers on the Perkin Elmer Envision 2104 Multi Label Reader at 508 nm excitation and 527 nm emission wavelengths. IC50 values were calculated by concentration-response curve fitting utilizing a four-parameter analytical method using GraphPad Prism software.
(§2) The effect of Compound 1 on cell proliferation was assessed in multiple ER+ breast cancer cell lines, including parental and palbociclib resistant cell lines.
(§3) Similar results were shown with NCIH2087, NCIH358, and A549 NSCLC cell lines ([…].4).

Data set [4] deals with MCF7, T47D, and HCC1428 parental ER+ breast cancer cell lines. Briefly: Cell proliferation assay, parental ER+ breast cancer cell lines (range over lines). The following applies: Homo sapiens, read-out: anti-proliferation IC50 values, range over cell lines. In kind it is cell-based. As for the experimental part: as §1, §2, §3
Data set [5] is described as follows: Preliminary assessment of metabolism (hepatocytes, human liver microsomes, plasma after oral dosing). In kind it is in vitro ADME, rat, rabbit. The following applies: hepatocytes of six species, plasma from monkey, dog and mouse. As for the experimental part: A preliminary assessment of the metabolism of Compound 1 was conducted using mouse, rat, rabbit, dog, monkey and human hepatocytes; human liver microsomes; plasma from monkey, dog and mouse studies following oral dosing. The primary metabolic pathway of Compound 1 was oxidation.

The target in data set [6] is T2, CDK4/Cyclin D1 (Homo sapiens, UniProt P11802).
T2 construct: 2007 E1/2008+PO4
Briefly: CDK4/Cyclin D1 mobility shift assay. The following applies: geometric mean, 3.5 mM ATP. In kind it is biochemical. As for the experimental part: The mobility shift assay electrophoretically separates the fluorescently labeled peptides (substrate and phosphorylated product) following the kinase reaction. Both substrate and product are measured and the ratio of these values is used to generate % Conversion of substrate to product by the LabChip EZ Reader.
K, determinations were made from a plot of the fractional velocity as a function of inhibitor concentration fit to the Morrison equation with the enzyme concentration as a variable.

Data set [7] deals with T3, CDK2/Cyclin E1 (Homo sapiens, UniProt P24941).
T3 construct: Wild-type full length CDK2/wild-type full length Cyclin E1 enzyme complex was produced in-house
Put plainly: CDK2/Cyclin E1 mobility shift assay. Format: biochemical. Particulars: geometric mean, 150 μM ATP. As to the method:
(CPC Scientific, Sunnyvale, CA). The mobility shift assay electrophoretically separates the fluorescently labeled peptides (substrate and phosphorylated product) following the kinase reaction. Both substrate and product are measured, and the ratio of these values is used to generate % conversion of substrate to product by the LabChip EZ Reader. […] The assay was initiated with the addition of ATP, following a fifteen minutes pre-incubation of enzyme and inhibitor at room temperature in the reaction mixture. The reaction was stopped after 45 minutes at room temperature by the addition of 50 μL of 80 mM EDTA, pH 7.5. The Ki value was determined from the fit of the data to the Morrison tight-binding competitive inhibition equation with the enzyme concentration as a variable.

Data set [8] can be described thus: Human blood-to-plasma partition ratio (BPR). In kind it is in vitro ADME. Further details: dose or concentration left out as unconfirmed. Particulars: fresh whole blood, 37° C. As for the experimental part:
Compound 1 has been evaluated according to methods well known in the art, for its ability to partition between human plasma and blood. Based on the observed partitioning and plasma protein binding, the blood binding was estimated based on human blood unbound fraction (fub)=human plasma unbound fraction (fup)/human blood-to-plasma partition ratio (BPR). […] At the end of the incubations, blood and plasma samples were matrix-matched and analyzed by LC-MS/MS. BPR was calculated by dividing the blood and plasma measure peak areas.

A short description of data set [9]: Observed human half-life. Format: in vivo.

T2 sequence (P11802 whole entry): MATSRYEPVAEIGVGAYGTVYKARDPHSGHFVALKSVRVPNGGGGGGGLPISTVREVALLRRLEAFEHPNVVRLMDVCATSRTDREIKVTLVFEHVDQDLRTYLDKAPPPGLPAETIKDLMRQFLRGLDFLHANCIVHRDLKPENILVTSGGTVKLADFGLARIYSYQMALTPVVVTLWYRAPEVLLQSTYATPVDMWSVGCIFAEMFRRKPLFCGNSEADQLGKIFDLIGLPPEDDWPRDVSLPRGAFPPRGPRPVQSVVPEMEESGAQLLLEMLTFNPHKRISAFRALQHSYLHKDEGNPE
T2 sequence (P24385 whole entry partner): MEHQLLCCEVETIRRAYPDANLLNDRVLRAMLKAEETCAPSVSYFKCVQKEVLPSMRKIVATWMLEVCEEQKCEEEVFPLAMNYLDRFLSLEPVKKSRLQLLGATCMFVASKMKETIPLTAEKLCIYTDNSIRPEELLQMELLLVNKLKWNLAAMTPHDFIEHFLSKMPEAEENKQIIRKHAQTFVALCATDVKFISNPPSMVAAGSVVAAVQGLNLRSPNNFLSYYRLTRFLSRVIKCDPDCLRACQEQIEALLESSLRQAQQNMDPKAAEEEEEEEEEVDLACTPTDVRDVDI
T1 sequence (Q00534 whole entry): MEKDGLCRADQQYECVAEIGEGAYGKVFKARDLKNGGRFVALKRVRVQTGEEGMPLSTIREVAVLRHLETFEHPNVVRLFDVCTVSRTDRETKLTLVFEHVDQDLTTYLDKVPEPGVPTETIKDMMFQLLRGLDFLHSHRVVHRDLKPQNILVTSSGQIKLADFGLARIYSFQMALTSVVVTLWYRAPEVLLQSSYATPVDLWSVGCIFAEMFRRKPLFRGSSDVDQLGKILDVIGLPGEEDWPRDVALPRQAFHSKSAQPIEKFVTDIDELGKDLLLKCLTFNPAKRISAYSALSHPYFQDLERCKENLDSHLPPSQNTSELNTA
T1 sequence (P30281 whole entry partner): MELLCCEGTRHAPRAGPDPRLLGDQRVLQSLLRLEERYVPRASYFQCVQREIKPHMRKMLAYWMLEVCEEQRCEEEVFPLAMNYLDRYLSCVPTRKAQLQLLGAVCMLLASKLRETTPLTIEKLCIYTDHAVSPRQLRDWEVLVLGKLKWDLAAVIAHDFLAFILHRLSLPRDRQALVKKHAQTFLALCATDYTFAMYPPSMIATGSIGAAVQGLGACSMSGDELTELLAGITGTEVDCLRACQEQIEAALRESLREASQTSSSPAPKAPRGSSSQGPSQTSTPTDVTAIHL

As to `C[C@@]1(O)CCC[C@H]1n1c(=O)c(CC(F)F)cc2cnc(NC3CCN(S(N)(=O)=O)CC3)nc21` [Compound 1, 4-({6-(2,2-difluoroethyl)-8-[(1R,2R)-2-hydroxy-2-methylcyclopentyl]-7-oxo-7,8-dihydropyrido[2,3-d]pyrimidin-2-yl}amino)piperidine-1-sulfonamide], in data set [1], the “Rat Vdss unbound: (Rat plasma Vdss/rat plasma fu)” value was found to be 10.8 L/kg. For the same compound, the Vd in data set [1] (rat, plasma, iv, 2 mg/kg, male Wistar-Hannover rats, read-out: Rat Vdss) was 1.5 L/kg. The Ki in data set [2] worked out at 3.1 nM; in data set [6], 0.79 nM; in data set [7] it was 0.08 nM. Besides, the IC50 in [3] was 37.3 to 65.7 nM; in data set [4], 14.3 to 17.6 nM. Further, in [5], the primary metabolic pathway entry was “oxidation”. In addition, in data set [8], the blood plasma ratio at 1 h was 79.

Take `C[C@@]1(O)CCC[C@H]1n1c(=O)c(C(F)F)cc2cnc(NC3CCN(S(C)(=O)=O)CC3)nc21` [Compound 2, reference compound]: the “observed human t1/2” value in data set [9] is around 3 h. Besides, the half-life in [9] (in vivo, read-out: observed human t1/2 (converted)) was 3 h.

What is called Ki is a measure of affinity in units of concentration, obtained from inhibition or displacement.
